Data reported in patent publication US10028911B2, “Sustained release formulation of methotrexate as a disease-modifying antirheumatic drug (DMARD) and an anti-cancer agent” (PACIRA PHARMACEUTICALS, INC., priority 2010, dated 2018).
Like-named read-outs stand apart in the source and are kept apart here.

Assays:
[1] = cited from earlier work
[2] = Pharmacokinetic (PK) study in rats, subcutaneous injection, serum MTX by HPLC; type: in vivo, Male Sprague Dawley rats; conditions: rat
Experimental: A pharmacokinetic (PK) study was performed in rats, comparing MTX solution control against four different formulations of MVL-encapsulated MTX at a dose level of 10 mg/kg. Male Sprague Dawley rats weighing 280-320 g received subcutaneous injections of either MTX solution or one of the MVL-encapsulated MTX formulations. The injections were made on the left lateral hind limb of each rat using 1 mL syringes fitted with 25G needles. Each treatment group contained 3 rats. Appropriate dilutions with sterile saline solution were performed to provide a dose of 10 mg/kg of MTX per rat, assuming an average rat weight of 300 g (final injection volume of 200 uL). Rats were ordered by pre-dose weight and then randomized into the different treatment groups.
Serum MTX analysis was performed to measure MTX in serum using a liquid-liquid extraction (LLE) HPLC method performed by an Agilent 1200 Series system produced by Agilent Technologies headquartered in Santa Clara, Calif. A 100 μL volume of rat serum was mixed with 300 μL of acetonitrile solution containing 1.1% formic acid (w/v) in a 1.5-mL Eppendorf tube. The deproteinization was carried out by vortexing for 1 minute, followed by centrifugation at 13,000 g for 5 minutes. The entire supernatant was transferred into a 1.5-mL microcentrifuge tube with screw cap. Acetonitrile was cleaned out by mixing 500 μL of chloroform with the supernatant. The tube was vortexed for 1 minute and then centrifuged at 13,000 g for 3 minutes. A 40 μL volume of the top aqueous portion was collected into a 100-μL vial insert for HPLC sample injection.
The HPLC system was equipped with a detector set at 302 nm and a 2.1-mm×250-mm Supelcosil LC-18-S with 5-μm particle size column. The mobile phase consisted of 102 mM sodium phosphate (dibasic), 32.5 mM citric acid, and 10% (v/v) acetonitrile (pH˜6.0). The flow rate was 0.6 mL/min, column temperature 35° C., and injection volume 20 μL. An MTX standard curve was prepared by spiking 6 different concentrations of MTX (22.7-727.1 ng/mL) into MTX-free rat serum. The MTX in each spiked standard was extracted using the same sample preparation method above.
Additional PK studies on Formulations 1 and 2 were performed as above, including some at reduced doses of MTX. The PK parameters from these studies are summarized below. […] The Cavg is the average plasma concentration over the 7 day time period.

time to drop below LOQ in plasma ([2]; 10 mg/kg, FIG. 1): ≤ 24 h
AUC/Dose ([2]; MTX dose 10 mg/kg): 1.55 µmol·h/L/mg/kg
Cmax ([2]; MTX dose 10 mg/kg): 14.4 µM
tmax ([2]; MTX dose 10 mg/kg): 0.5 h
SMILES: CN(Cc1cnc2nc(N)nc(N)c2n1)c1ccc(C(=O)N[C@@H](CCC(=O)O)C(=O)O)cc1 [MTX Solution, methotrexate]
standard AUC ([1]; oral immediate release dosage forms (Hoekstra et al. 2004)): 2466 mcg/L-hr
t1/2 ([1]; orally administered): 8 to 10 h
tmax ([1]; orally administered): 1 to 3 h
